19 molecules from US9399646B2 (Genentech, Inc., priority 2010, dated 2016) can be followed below.

In general, IC50 refers to the concentration that inhibits the measured activity by half.

One assay deals with MCF-7 cells. Description: Breast cancer cell viability assay (CellTiter-Glo, 5 days). Type of assay: cell-based. To be noted: 5 days' compound exposure; for IC50: Homo sapiens, MCF7, 120 h. The gist of the method: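 MCF-7 cells, 320 per well in RPMI with 10% FBS and 20 mM HEPES, adhered overnight, then exposed 5 days to an eleven-point semilog dilution (final 0.3-0.000003 μM). CellTiter-Glo luminescence read; % viability = (sample − cell-free background)/(untreated − background) × 100.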
(In general: ATP-based viability assays read luminescence as a measure of living cells.)

The next assay addresses T1, ER-α in MCF-7 cells (Homo sapiens, UniProt P03372).
T1 sequence (P03372 1-595): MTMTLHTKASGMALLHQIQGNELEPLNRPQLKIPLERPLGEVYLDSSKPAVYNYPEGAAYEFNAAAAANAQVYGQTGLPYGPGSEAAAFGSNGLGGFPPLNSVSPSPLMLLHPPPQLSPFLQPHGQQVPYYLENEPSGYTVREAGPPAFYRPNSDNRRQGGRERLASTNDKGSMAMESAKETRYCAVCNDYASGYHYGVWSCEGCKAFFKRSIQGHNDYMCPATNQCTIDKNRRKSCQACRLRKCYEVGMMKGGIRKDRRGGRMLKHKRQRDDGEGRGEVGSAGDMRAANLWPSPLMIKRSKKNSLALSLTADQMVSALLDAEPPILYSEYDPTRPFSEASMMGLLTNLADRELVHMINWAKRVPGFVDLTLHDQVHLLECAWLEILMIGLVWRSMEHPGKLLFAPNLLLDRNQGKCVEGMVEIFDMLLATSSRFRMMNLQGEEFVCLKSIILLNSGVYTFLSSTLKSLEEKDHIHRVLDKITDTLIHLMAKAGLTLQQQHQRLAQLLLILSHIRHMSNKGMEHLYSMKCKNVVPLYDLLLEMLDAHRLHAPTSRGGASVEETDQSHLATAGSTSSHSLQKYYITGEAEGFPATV
Description: Breast cancer cell ER-α in cell western assay (SP1). It is filed as cell-based. Also noted: endogenous in cells; host or cells: MCF-7. The settings on record: 4 or 24 hr post compound addition; for Emax: MCF7, SP1 antibody, read-out: ER-α In Cell Western Assay (SP1) Max Response; for DC50: SP1 antibody, read-out: ER-α In Cell Western Assay (SP1) IC50. Put shortly:
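Fixed cells were immunostained with SP1 anti-ER antibody; ER signal (800 nm) was normalized to DRAQ5 DNA signal (700 nm) and expressed as % of untreated cells.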

For the molecule `CC/C(=C(/c1ccc(/C=C/C(=O)O)cc1)c1ccc2[nH]ncc2c1)c1cc2ccccc2s1` [Compound 268, (E)-3-(4-((E)-2-(Benzo[b]thiophen-2-yl)-1-(1H-indazol-5-yl)but-1-en-1-yl)phenyl)acrylic acid], in the assay with MCF-7 cells, the “MCF7 Viability Assay Max Response” value was “++ (++ = a single % value ≧ 40%)” and the IC50 was greater than 100 nM. Moreover, at ER-α in MCF-7 cells, the Emax is no less than 40% and the DC50 was no more than 100 nM.

In the case of `O=C(O)/C=C/c1ccc(/C(=C(\c2ccncc2Cl)C2CCC2)c2ccc3[nH]ncc3c2)cc1` [Compound 305, (E)-3-(4-((E)-2-(3-Chloropyridin-4-yl)-2-cyclobutyl-1-(1H-indazol-5-yl)vinyl)phenyl)acrylic acid], in the assay on MCF-7 cells, the “MCF7 Viability Assay Max Response” value was “++ (++ = a single % value ≧ 40%)” and the IC50 is no more than 100 nM. At ER-α in MCF-7 cells, the Emax was no less than 40% and the DC50 is no more than 100 nM.

On to `CC/C(=C(/c1ccc(/C=C/C(=O)O)cc1)c1ccn2ncnc2c1)c1ccccc1` [Compound 136, (E)-3-(4-((E)-1-([1,2,4]Triazolo[1,5-a]pyridin-7-yl)-2-phenylbut-1-en-1-yl)phenyl)acrylic acid], for which, in the assay with MCF-7 cells, the “MCF7 Viability Assay Max Response” value was “+ (+ = a single % value < 40%)” and the IC50 was greater than 100 nM. Besides, on ER-α in MCF-7 cells, the Emax was no less than 40% and the DC50 is greater than 100 nM.

Take `CC/C(=C(/c1ccc(/C=C/C(=O)NC2CCCC2)cc1)c1ccc2[nH]ncc2c1)c1ccccc1` [Compound 431, (E)-3-(4-((E)-1-(1H-Indazol-5-yl)-2-phenylbut-1-en-1-yl)phenyl)-N-cyclopentylacrylamide]: in the assay with MCF-7 cells, the “MCF7 Viability Assay Max Response” value was “++ (++ = a single % value ≧ 40%)” and the IC50 was no more than 100 nM. Further, at ER-α in MCF-7 cells, the Emax was no less than 40% and the DC50 was no more than 100 nM.

For the molecule `CC/C(=C(/c1ccc(/C=C/C(=O)O)cc1)c1ccc2sc(C)nc2c1)c1ccccc1` [Compound 159, (E)-3-(4-((E)-1-(2-Methylbenzo[d]thiazol-5-yl)-2-phenylbut-1-en-1-yl)phenyl)acrylic acid], in the assay on MCF-7 cells, the “MCF7 Viability Assay Max Response” value is given as “++ (++ = a single % value ≧ 40%)” and the IC50 is greater than 100 nM. Also, at ER-α in MCF-7 cells, the Emax was no less than 40% and the DC50 was greater than 100 nM.

As to `CC/C(=C(/c1ccc(/C=C/C(=O)O)cc1)c1ccc2[nH]ncc2c1)c1cc2c(s1)CCN(C)C2` [Compound 270, (E)-3-(4-((E)-1-(1H-Indazol-5-yl)-2-(5-methyl-4,5,6,7-tetrahydrothieno[3,2-c]pyridin-2-yl)but-1-en-1-yl)phenyl)acrylic acid], in the assay on MCF-7 cells, the “MCF7 Viability Assay Max Response” value is recorded as “++ (++ = a single % value ≧ 40%)” and the IC50 was greater than 100 nM. Besides, on ER-α in MCF-7 cells, the Emax was no less than 40% and the DC50 was greater than 100 nM.

On to `CC/C(=C(/c1ccc(/C=C/C(=O)O)cc1)c1ncc2[nH]ncc2n1)c1ccccc1` [Compound 149, (E)-3-(4-((E)-2-Phenyl-1-(1H-pyrazolo[4,3-d]pyrimidin-5-yl)but-1-en-1-yl)phenyl)acrylic acid], for which, in the assay with MCF-7 cells, the “MCF7 Viability Assay Max Response” value is listed as “+ (+ = a single % value < 40%)” and the IC50 is greater than 100 nM. Besides, at ER-α in MCF-7 cells, the Emax was no less than 40% and the DC50 was greater than 100 nM.

Regarding `CC/C(=C(/c1ccc(/C=C/C(=O)NO)cc1)c1ccc2[nH]ncc2c1)c1ccccc1` [Compound 418, (E)-3-(4-((E)-1-(1H-Indazol-5-yl)-2-phenylbut-1-en-1-yl)phenyl)-N-hydroxyacrylamide], in the assay on MCF-7 cells, the “MCF7 Viability Assay Max Response” value is “++ (++ = a single % value ≧ 40%)” and the half-inhibitory concentration (IC50) is no more than 100 nM. Also, on ER-α in MCF-7 cells, the Emax was no less than 40% and the DC50 is no more than 100 nM.

Regarding `CC/C(=C(/c1ccc(/C=C/C(=O)O)cc1)c1ccc2[nH]ncc2c1)c1ccncc1C(F)(F)F` [Compound 304, (E)-3-(4-((E)-1-(1H-Indazol-5-yl)-2-(3-(trifluoromethyl)pyridin-4-yl)but-1-en-1-yl)phenyl)acrylic acid], in the assay on MCF-7 cells, the “MCF7 Viability Assay Max Response” value was “++ (++ = a single % value ≧ 40%)” and the 50% inhibitory concentration (IC50) was no more than 100 nM. Further, on ER-α in MCF-7 cells, the Emax was no less than 40% and the DC50 was no more than 100 nM.

Take `CC/C(=C(/c1ccc(/C=C/C(=O)O)cc1)c1ccc2[nH]ncc2c1)c1ccc(-c2nccs2)cc1` [Compound 387, (E)-3-(4-((E)-1-(1H-Indazol-5-yl)-2-(4-(thiazol-2-yl)phenyl)but-1-en-1-yl)phenyl)acrylic acid]: in the assay on MCF-7 cells, the “MCF7 Viability Assay Max Response” value is “++ (++ = a single % value ≧ 40%)” and the IC50 was greater than 100 nM. Also, at ER-α in MCF-7 cells, the Emax is no less than 40% and the DC50 was no more than 100 nM.

For the molecule `CC/C(=C(/c1ccc(/C=C/C(N)=O)cc1)c1ccc2[nH]ncc2c1)c1ccc(F)cc1Cl` [Compound 417, (E)-3-(4-((E)-2-(2-Chloro-4-fluorophenyl)-1-(1H-indazol-5-yl)but-1-en-1-yl)phenyl)acrylamide], in the assay on MCF-7 cells, the “MCF7 Viability Assay Max Response” value is given as “++ (++ = a single % value ≧ 40%)” and the IC50 is no more than 100 nM. Also, on ER-α in MCF-7 cells, the Emax was no less than 40% and the DC50 was no more than 100 nM.

For `CC/C(=C(/c1ccc(/C=C/c2nn[nH]n2)cc1)c1ccc2[nH]ncc2c1)c1ccccc1` [Compound 442, 5-((E)-1-(4-((E)-2-(2H-Tetrazol-5-yl)vinyl)phenyl)-2-phenylbut-1-en-1-yl)-1H-indazole], in the assay on MCF-7 cells, the “MCF7 Viability Assay Max Response” value is listed as “++ (++ = a single % value ≧ 40%)” and the IC50 was no more than 100 nM. For the same molecule, at ER-α in MCF-7 cells, the Emax was no less than 40% and the DC50 is no more than 100 nM.

As to `CC/C(=C(/c1ccc(/C=C/C(=O)O)cc1)c1ccc2[nH]ncc2c1)c1cnnn1C` [Compound 221, (E)-3-(4-((E)-1-(1H-Indazol-5-yl)-2-(1-methyl-1H-1,2,3-triazol-5-yl)but-1-en-1-yl)phenyl)acrylic acid], in the assay on MCF-7 cells, the “MCF7 Viability Assay Max Response” value is recorded as “+ (+ = a single % value < 40%)” and the IC50 was greater than 100 nM. In addition, on ER-α in MCF-7 cells, the Emax is less than 40% and the DC50 was greater than 100 nM.

Take `CC/C(=C(/c1ccc(/C=C/C(=O)O)cc1)c1cccc2[nH]ncc12)c1ccc(F)cc1Cl` [Compound 30, (E)-3-(4-((E)-2-(2-Chloro-4-fluorophenyl)-1-(1H-indazol-4-yl)but-1-en-1-yl)phenyl)acrylic acid]: in the assay with MCF-7 cells, the “MCF7 Viability Assay Max Response” value was “++ (++ = a single % value ≧ 40%)” and the IC50 is no more than 100 nM. At ER-α in MCF-7 cells, the Emax was no less than 40% and the DC50 is no more than 100 nM.

As to `CC/C(=C(/c1ccc(/C=C/c2noc(=O)[nH]2)cc1)c1ccc2[nH]ncc2c1)c1ccccc1` [Compound 435, 3-((E)-4-((E)-1-(1H-Indazol-5-yl)-2-phenylbut-1-en-1-yl)styryl)-1,2,4-oxadiazol-5(4H)-one], in the assay on MCF-7 cells, the “MCF7 Viability Assay Max Response” value is “++ (++ = a single % value ≧ 40%)” and the IC50 was no more than 100 nM. In addition, at ER-α in MCF-7 cells, the Emax is no less than 40% and the DC50 was no more than 100 nM.

Take `CC/C(=C(/c1ccc(/C=C/C(=O)O)cc1)c1ccc2[nH]c(=O)ccc2c1)c1ccccc1` [Compound 105, (E)-3-(4-((E)-1-(2-Oxo-1,2-dihydroquinolin-6-yl)-2-phenylbut-1-en-1-yl)phenyl)acrylic acid]: in the assay on MCF-7 cells, the “MCF7 Viability Assay Max Response” value was “++ (++ = a single % value ≧ 40%)” and the IC50 was greater than 100 nM. For the same molecule, at ER-α in MCF-7 cells, the Emax was no less than 40% and the DC50 was greater than 100 nM.

With `CC/C(=C(/c1ccc(/C=C/C(=O)O)cc1)c1ccc2c(cnn2C(=O)C(C)(C)C)c1)c1ccc(F)cc1Cl` [Compound 405, (E)-3-(4-((E)-2-(2-Chloro-4-fluorophenyl)-1-(1-pivaloyl-1H-indazol-5-yl)but-1-en-1-yl)phenyl)acrylic acid], in the assay with MCF-7 cells, the “MCF7 Viability Assay Max Response” value was “++ (++ = a single % value ≧ 40%)” and the IC50 was no more than 100 nM. Also, at ER-α in MCF-7 cells, the Emax was no less than 40% and the DC50 was no more than 100 nM.

Turning to `CC/C(=C(/c1ccc(/C=C/C(=O)O)cc1)c1ccc2[nH]ncc2c1)c1ccc(C)s1` [Compound 227, (E)-3-(4-((E)-1-(1H-Indazol-5-yl)-2-(5-methylthiophen-2-yl)but-1-en-1-yl)phenyl)acrylic acid], in the assay with MCF-7 cells, the “MCF7 Viability Assay Max Response” value is listed as “++ (++ = a single % value ≧ 40%)” and the IC50 was no more than 100 nM. In addition, on ER-α in MCF-7 cells, the Emax was no less than 40% and the DC50 was no more than 100 nM.

For the molecule `CC/C(=C(/c1ccc(/C=C/C(=O)O)nc1)c1ccc2[nH]ncc2c1)c1ccccc1` [Compound 189, (E)-3-(5-((Z)-1-(1H-Indazol-5-yl)-2-phenylbut-1-en-1-yl)pyridin-2-yl)acrylic acid], in the assay on MCF-7 cells, the “MCF7 Viability Assay Max Response” value is “++ (++ = a single % value ≧ 40%)” and the IC50 is greater than 100 nM. Further, on ER-α in MCF-7 cells, the Emax was no less than 40%.
